Data from US20250073248A1, “BIORESORBABLE CATIONIC STEROIDAL ANTIMICROBIAL COMPOUNDS WITH GLYCERIDE LINKAGES” (BRIGHAM YOUNG UNIVERSITY, priority 2023, published 2025).
Values after ≈ are worked out from the molar mass of the structure shown.

How the values were obtained:
P. mirabilis ATCC 29906 = experiment: MIC/MBC of CSA-4110, Gram negative bacteria (Table 3); format: cell-based; details: Proteus mirabilis, ATCC29906
Method: (§1) All compounds were screened against these pathogens to determine their minimum inhibitory concentration (MIC), minimum bactericidal concentration (MBC), and minimum fungicidal concentration (MFC) using a broth microdilution method. […] Of these three, only CSA-4110 was similarly active against PA01and CA, inhibiting growth at 8 μg/mL.
(§2) CSA-4110 was evaluated further against a broader range of bacterial and fungal strains. Acinetobacter baumannii and several isolates of Staphylococcus aureus, Klebsiella pneumoniae, and Candida auris were selected, further broadening the coverage of high and critical priority pathogens. Streptococcus uberis, Staphylococcus pseudintermedius, Proteus mirabilis, and Escherichia coli were also screened to obtain a more complete efficacy profile. […] For comparison, previous work established the MICs of CSA-131 against strains of Staphylococcus aureus, Pseudomonas aeruginosa, and Candida albicans at 0.5-2 μg/mL
PM is a Gram-negative organism which is occasionally found in urinary tract infections in individuals with functional or anatomical anomalies. It is often noted for its ability to modulate its susceptibility to cationic biocides primarily through modifications to its efflux system and the structure of lipopolysaccharide, a negatively charged endotoxin located in the outer membrane. This can provide insight into the mechanism-of-action for CSA-4110. […]

Candida albicans (CA) = experiment: MIC and MFC, broth microdilution, CA (Table 1); format: cell-based; details: Candida albicans
Source text: To investigate the antimicrobial impact of structural variance in the novel bioresorbable CSA compounds disclosed herein,Pseudomonas aeruginosa 01 (PA01), methicillin-resistant Staphylococcus aureus (MRSA), and Candida albicans (CA) were selected, representing Gram-negative bacterial, Gram-positive bacterial, and fungal pathogens of high or critical priority on the world health organization's priority lists for bacteria and fungi. Earlier applications of CSA compounds have focused on preventing medical device infections, and all three strains are commonly found in colonized implants, making efficacy against these pathogens an important indicator of future applicability.
as §1

[1] = tested on: K. pneumoniae ATCC BAA-1706; experiment: MIC/MBC of CSA-4110, Gram negative bacteria (Table 3); format: cell-based; details: Klebsiella pneumoniae, ATCCBAA1706
Method: as §1, §2

A. baumannii ATCC 19606 = experiment: as above; format: cell-based; details: Acinetobacter baumannii, ATCC19606
Method: as §1, §2

K. pneumoniae ATCC 13883 = experiment: as above; format: cell-based; details: Klebsiella pneumoniae, ATCC13883
Method: as §1, §2

K. pneumoniae ARLG 1360 = experiment: as above; format: cell-based; details: Klebsiella pneumoniae, ARLG1360
Method: as §1, §2

[2] = tested on: P. aeruginosa 01 ATCC 47085; experiment: as above; format: cell-based; details: Pseudomonas aeruginosa, ATCC47085
Method: as §1, §2

P. aeruginosa ATCC 27853 = experiment: as above; format: cell-based; details: Pseudomonas aeruginosa, ATCC27853
Method: as §1, §2

E. coli ATCC 25922 = experiment: as above; format: cell-based; details: Escherichia coli, ATCC25922
Method: as §1, §2

[3] = tested on: methicillin-resistant Staphylococcus aureus (MRSA); experiment: Example 1 MIC/MBC (FIG. 1, FIG. 2), MRSA; format: cell-based
Method: (§3) The antimicrobial activities of CSA-4108, CSA-4110, CSA-4112, and CSA-4114 were determined relative to methicillin-resistant Staphylococcus aureus (MRSA), Pseudomonas aeruginosa (Pa), and Candida albicans 90028. The minimum inhibitory concentration (MIC) for CSA-4108, CSA-4110, CSA-4112, and CSA-4114 relative to the foregoing microbes is graphically reported in FIG. 1. The minimum bactericidal concentration (MBC) and minimum fungicidal concentration […] for CSA-4108, CSA-4110, CSA-4112, and CSA-4114 relative to the foregoing microbes are graphically reported in FIG. 2.

Candida albicans 90028 = experiment: Example 1 MIC/MFC (FIG. 1, FIG. 2), C. albicans; format: cell-based
Method: as §3

[4] = tested on: Pseudomonas aeruginosa (Pa); experiment: Example 1 MIC/MBC (FIG. 1, FIG. 2), Pa; format: cell-based
Method: as §3

lipase = experiment: Stability (hydrolysis) in the presence of lipase, HPLC; format: in vitro ADME
Method: The stability, more particularly the rate of hydrolysis in water, of CSA-4110 was tested at various pH values or when exposed to lipase.
To measure the stability of CSA-4110 under various conditions (pH and presence of lipase), monitored degradation over time by HPLC. To enable UV/visible detection, CSA-4110 required derivatization with a chromophore. A precolumn derivatization method was adapted using Fmoc-Cl. This method also required CSA-131 as an internal standard to eliminate errors due to volumetric variations.
With a reliable quantitative analysis method in hand, the optimal storage conditions were determined for CSA-4110 in solution and how quickly CSA-4110 degrades when exposed to mammalian lipases and varied pH. Reference is again made to FIGS. 3A-3D.

[5] = tested on: broader range of bacterial and fungal strains; experiment: CSA-4110 against a broader range of bacterial and fungal strains (summary of Tables 2-4); format: cell-based
Method: as §1, §2

C. albicans ATCC 90028 = experiment: MIC/MFC of CSA-4110, fungi (Table 4); format: cell-based; details: Candida albicans, ATCC90028
Method: as §1, §2

C. auris CDC 384 = experiment: MIC/MFC of CSA-4110, fungi (Table 4); format: cell-based, Candida auris; details: Candidozyma auris, CDC384
Method: as §1, §2

C. auris CDC 385 = experiment: MIC/MFC of CSA-4110, fungi (Table 4); format: cell-based, Candida auris; details: Candidozyma auris, CDC385
Method: as §1, §2

C. auris CDC 387 = experiment: MIC/MFC of CSA-4110, fungi (Table 4); format: cell-based, Candida auris; details: Candidozyma auris, CDC387
Method: as §1, §2

[6] = all strains of Tables 2-4 except Proteus mirabilis

CCCCCCCCCC(=O)OCC(O)COC(=O)CC[C@@H](C)[C@H]1CC[C@H]2[C@@H]3[C@H](OC(=O)CCN)C[C@@H]4C[C@H](OC(=O)CCN)CC[C@]4(C)[C@H]3C[C@H](OC(=O)CCN)[C@]12C (stereo partly shown) [CSA-4110]
MBC (P. mirabilis ATCC 29906): 64 µg/mL | MIC (P. mirabilis ATCC 29906): 16 µg/mL | MBC (Candida albicans (CA); MFC, value in parentheses): 16 µg/mL (≈ 18.8 µM) | MIC (Candida albicans (CA); first value of cell): 8 µg/mL (≈ 9.41 µM) | MBC [1]: 4 µg/mL | MIC [1]: 4 µg/mL | MBC (A. baumannii ATCC 19606): 4 µg/mL | MIC (A. baumannii ATCC 19606): 4 µg/mL | MBC (K. pneumoniae ATCC 13883): 2 µg/mL | MIC (K. pneumoniae ATCC 13883): 2 µg/mL | MBC (K. pneumoniae ARLG 1360): 8 µg/mL | MIC (K. pneumoniae ARLG 1360): 8 µg/mL | MBC [2]: 8 µg/mL | MIC [2]: 4 µg/mL | MBC (P. aeruginosa ATCC 27853): 8 µg/mL | MIC (P. aeruginosa ATCC 27853): 4 µg/mL | MBC (E. coli ATCC 25922): 4 µg/mL | MIC (E. coli ATCC 25922): 4 µg/mL | MBC (FIG. 2), ranking in words [3]: lowest MBC and MFC | MIC (FIG. 1), ranking in words [3]: lowest MIC | MFC (FIG. 2), ranking in words (Candida albicans 90028): lowest MBC and MFC | MIC (FIG. 1), ranking in words (Candida albicans 90028): same MIC | MBC (FIG. 2), ranking in words ([4]; PA): lowest MBC and MFC | MIC (FIG. 1), ranking in words ([4]; Pa): lowest MIC | hydrolysis in aqueous solution containing lipase (lipase; FIG. 3D): hydrolyzed most rapidly | half-life (lipase; mammalian (lipase; species not named), lipase in aqueous solution, dissolved with a lipase at room temperature at pH=6.9): 1 h | MBCs/MFCs, range over the strains [5, 6]: 2 to 16 µg/mL | MICs, range over the strains [5, 6]: 2 to 8 µg/mL | MICs, range as restated in the CMC paragraph ([5]; compared with CMC): 2 to 8 g/mL | MBC (C. albicans ATCC 90028): 16 µg/mL (≈ 18.8 µM) | MIC (C. albicans ATCC 90028): 4 µg/mL (≈ 4.71 µM) | MBC (C. auris CDC 384): 16 µg/mL (≈ 18.8 µM) | MIC (C. auris CDC 384): 4 µg/mL (≈ 4.71 µM) | MBC (C. auris CDC 385): 16 µg/mL (≈ 18.8 µM) | MIC (C. auris CDC 385): 8 µg/mL (≈ 9.41 µM) | MBC (C. auris CDC 387): 16 µg/mL (≈ 18.8 µM) | MIC (C. auris CDC 387): 8 µg/mL (≈ 9.41 µM)
